Here are results for 13 molecules from patent US5318993A, “Antihyperlipidemic benzoquinones” (Bristol-Myers Squibb Company, priority 1993, dated 1994).

Where two headings read alike, the source gives them in different places.

The test system of data set [1] is submitochondrial particles. The conditions noted are these: in words; cited from earlier work.
A short description of data set [2]: In vivo hypocholesterolemic activity in normocholesterolemic chickens (serum lipid parameters). The conditions noted are these: for response vs control in vivo at 4 mg/kg/day: Gallus gallus, po, 672 h. As to the method:
(§1) Hypocholesterolemic activity was evaluated for the synthetic analogues using γ-tocotrienol as a control in normocholesterolemic chickens. Newborn male chicks (6-10 for each group) were raised on a standard corn-soybean-based control diet for two weeks and then were switched to either control or experimental diets for four weeks. Drug treatment consisted of the addition of test compound to the corn-soybean-based. At the end of the feeding period, all the birds were fasted (about 36 hours) and refed (about 48 hours) to induce cholesterolgenic enzymes prior to sacrifice. The specific activity of HMG-CoA reductase, total serum cholesterol levels, HDL/LDL cholesterol pools, and triglyceride levels (data not shown) were examined (Table II).
(§2) Effects of BMS Compounds on Lipid Parameters in Male
(§3) Orally dosed for 4-weeks at 4 mg/kg/day

In another data set the test system is HepG2 cells. Put plainly: Cholesterol synthesis in HepG2 cell culture model (14C-acetate incorporation). The data set is classed as cell-based, human. The conditions noted are these: for activity at 10 µM: Homo sapiens, HepG2 cells, 4 hours incubation, read-out: Cholesterol Biosynthesis. As to the method:
(§4) The human hepatoma HepG2 cell culture model was employed to compare the intrinsic activities of the synthetic analogues relative to the tocotrienols. HepG2 cells were incubated with the indicated compounds for 4 hours at 10 μM. Cholesterol synthesis was assayed by ^14 C-acetate incorporation over the final hour of incubation, and HMG-CoA reductase suppression (specific activity) was assayed in the microsomal fraction isolated from parallel cultures at the end of the 4 hour incubation.

For data set [3], the target named is T1, HMG-CoA reductase (Homo sapiens, UniProt P04035).
T1 construct: assayed in the microsomal fraction isolated from parallel cultures; endogenous in cells; host or cells: HepG2 (human hepatoma)
T1 sequence (P04035 1-888): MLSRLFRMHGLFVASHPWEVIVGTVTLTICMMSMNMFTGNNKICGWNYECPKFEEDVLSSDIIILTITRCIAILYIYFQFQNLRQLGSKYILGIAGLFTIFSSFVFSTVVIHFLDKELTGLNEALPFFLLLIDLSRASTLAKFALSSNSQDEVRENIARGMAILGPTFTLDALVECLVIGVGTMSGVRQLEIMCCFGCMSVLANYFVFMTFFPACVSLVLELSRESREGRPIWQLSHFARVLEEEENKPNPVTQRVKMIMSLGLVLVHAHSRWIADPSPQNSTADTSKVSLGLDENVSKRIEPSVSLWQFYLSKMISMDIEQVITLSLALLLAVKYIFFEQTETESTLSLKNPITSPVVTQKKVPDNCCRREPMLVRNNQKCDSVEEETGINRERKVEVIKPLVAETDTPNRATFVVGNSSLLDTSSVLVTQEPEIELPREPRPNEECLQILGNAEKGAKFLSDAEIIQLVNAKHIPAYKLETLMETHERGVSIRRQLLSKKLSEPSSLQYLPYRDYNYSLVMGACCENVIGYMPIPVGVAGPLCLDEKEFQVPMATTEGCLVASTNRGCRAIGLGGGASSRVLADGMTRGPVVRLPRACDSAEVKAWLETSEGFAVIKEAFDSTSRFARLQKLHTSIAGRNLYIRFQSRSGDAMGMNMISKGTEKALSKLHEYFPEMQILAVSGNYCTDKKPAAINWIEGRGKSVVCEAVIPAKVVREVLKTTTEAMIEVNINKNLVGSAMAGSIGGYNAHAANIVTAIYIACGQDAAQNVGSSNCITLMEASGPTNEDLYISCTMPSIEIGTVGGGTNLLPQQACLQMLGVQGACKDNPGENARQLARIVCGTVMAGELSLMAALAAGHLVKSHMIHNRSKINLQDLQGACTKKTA
As to the kind of experiment: HMG-CoA reductase suppression (specific activity, microsomal fraction of HepG2 cells). The format is cell-based. The following applies: 4 hours incubation, read-out: HMGR Suppression. As for the experimental part:
as §4

Data set [4] concerns HMG-CoA reductase. As to the kind of experiment: HMG-CoA reductase specific activity in normocholesterolemic chickens. The format is in vivo. The following applies: male chickens, orally dosed for 4 weeks at 4 mg/kg/day. As for the experimental part: as §1, §2, §3
The subject of data set [5] is rat liver microsomes and mitochondrial membranes. The following applies: in words; cited from earlier work.
The conditions of data set [6]: man, cited from earlier work.
The test system of a further data set is LDL. The following applies: in words; cited from earlier work.
Where [7] appears, read: male chickens, orally dosed for 4 weeks at 4 mg/kg/day, read-out: HDL-C.
[8] abbreviates: male chickens, orally dosed for 4 weeks at 4 mg/kg/day, read-out: LDL-C.
The mark [9] stands for this setting: male chickens, orally dosed for 4 weeks at 4 mg/kg/day, total serum cholesterol, read-out: Tot.-C.

Turning to `COc1c(O)c(C)c(C/C=C(\C)CC/C=C(\C)CC/C=C(\C)CC/C=C(\C)CC/C=C(\C)CC/C=C(\C)CC/C=C(\C)CC/C=C(\C)CC/C=C(\C)CCC=C(C)C)c(O)c1OC` [Ubiquinol], in data set [1], the lipid peroxidation inhibition result is on record as “inhibits lipid peroxidation”.

On to `CC(C)=CCC/C(C)=C/CC/C(C)=C/CCC(C)(O)CCC1=CC(=O)C=CC1=O` (stereo not drawn) [Example 16, 2-(3-Hydroxy-3,7,11,15-Tetramethyl-6(E),10(E),14-Hexadecatrienyl)-2,5-cyclohexadiene-1,4-Dione Hydrate], for which the response vs control in vivo at 4 mg/kg/day in data set [2] (setting [7]) was 95.8%; in data set [2] (setting [8]), 94.9%; in data set [2] (setting [9]), 93.8%. Besides, the activity at 10 µM with HepG2 cells is 74%.

As for `CC(C)=CCC/C(C)=C/CC/C(C)=C/CC[C@]1(C)CCc2cc(O)c(C)c(C)c2O1` [γ-Tocotrienol, reference compound], the values for the activity at 10 µM on HMG-CoA reductase [3] and in the data set with HepG2 cells were 65% and 29%, respectively. The response vs control in vivo at 4 mg/kg/day in data set [2] (read-out: HDL-C) was 87%; in data set [2] (read-out: LDL-C), 54.8%; in data set [2] (read-out: Tot.-C), 76.3%.

For `CC(C)=CCC/C(C)=C/CC/C(C)=C/CC/C(C)=C/CC1=C(C)C(=O)c2ccccc2C1=O` [Vitamin K2, reference compound], the response vs control in vivo at 4 mg/kg/day in data set [2] (setting [7]) was 105%; in data set [2] (setting [8]), 146%; in data set [2] (setting [9]) it was 116%. In data set [2] (in words, Vitamin K2 (n=4), refers to Table II), the “cholesterol levels in vivo” value was “appears to actually elevate cholesterol levels”.

Regarding `CC(C)=CCC/C(C)=C/CC/C(C)=C/CCC(O)CCC1=CC(=O)C=CC1=O` (stereo not drawn) [Example 11, 2-(3-Hydroxy-7,11,15-Trimethyl-6(E),10(E),14-Hexadecatrienyl)-2,5-Cyclohexadiene-1,4-Dione], the response vs control in vivo at 4 mg/kg/day is 96.9% in data set [2] (setting [7]), 80.1% in data set [2] (setting [8]) and 87.2% in data set [2] (setting [9]). In the data set on HepG2 cells, the activity at 10 µM is 75%.

Regarding `CC1=C(C)C(=O)C(CCC(C)(O)CC/C=C(\C)CCc2cccc(C(F)(F)F)c2)=CC1=O` (stereo not drawn) [Example 13, 5-(3,7-Dimethyl-3-Hydroxy-9-[3-(Trifluoromethyl)phenyl]-6(E)-Nonenyl)-2,3-Dimethyl-2,5-cyclohexadiene-1,4-Dione], the response vs control in vivo at 4 mg/kg/day in data set [2] (setting [7]) amounted to 75.6%; in data set [2] (setting [8]) it was 32%; in data set [2] (setting [9]) it was 57.7%. Moreover, the HMGR with HMG-CoA reductase [4] is given as 59.9 % of Control.

Take `COC1=C(OC)C(=O)C(C/C=C(\C)CC/C=C(\C)CC/C=C(\C)CC/C=C(\C)CC/C=C(\C)CC/C=C(\C)CC/C=C(\C)CC/C=C(\C)CC/C=C(\C)CCC=C(C)C)=C(C)C1=O` [ubiquinone]: in data set [5], the effect on tocopherol result is “sparing effect on tocopherol”.

As for `CC(C)=CCC/C(C)=C/CC/C(C)=C/CCC(C)(O)CCC1=CC(=O)c2ccccc2C1=O` (stereo not drawn) [Example 14, 2-(3-Hydroxy-3,7,11,15-Tetramethyl-6(E),10(E),14-Hexadecatrienyl)-1,4-Naphthalene-1,4-dione], the response vs control in vivo at 4 mg/kg/day in data set [2] (setting [7]) stood at 94.7%; in data set [2] (setting [8]), 69.4%; in data set [2] (setting [9]), 82.4%. Besides, the activity at 10 µM in the data set with HepG2 cells was determined as 10%.

For `CC(C)=CCC/C(C)=C/CC/C(C)=C/CC1=CC(=O)C=CC1=O` [Example 10, 2-(3,7,11-Trimethyl-2(E),6(E),10-Dodecatrienyl)-2,5-Cyclohexadiene-4-Dione], the activity at 10 µM in the data set with HepG2 cells is 95%.

For `CC(C)=CCC/C(C)=C/CC/C(C)=C/CCC(C)(O)CCC1=CC(=O)C(C)=C(C)C1=O` (stereo not drawn) [Example 15, 5-(3-Hydroxy-3,7,11,15-Tetramethyl-6(E),10(E),14-Hexadecatrienyl)-2,3-Dimethyl-2,5-cyclohexadiene-1,4-Dione], the activity at 10 µM worked out at 79% on HMG-CoA reductase [3] and 89% in the data set on HepG2 cells. The response vs control in vivo at 4 mg/kg/day in data set [2] (setting [7]) was found to be 90.5%; in data set [2] (setting [8]) it was 59%; in data set [2] (setting [9]) it was 76.7%. In addition, the “activity in the chick model, relative to γ-tocotrienol” value in data set [2] (in words) was “comparable activity to γ-tocotrienol in the chick model”. Moreover, the “cholesterol/HMGR suppression in vivo, relative to γ-tocotrienol” value in data set [2] (in words, refers to Table II) was “very similar cholesterol/HMGR suppression in vitro and in vivo”. In the data set on HepG2 cells (in words), the “activity in the cholesterol suppression assay in vitro” value is “very active in the cholesterol suppression assay in vitro”. In addition, the “cholesterol/HMGR suppression in vitro, relative to γ-tocotrienol” value in the data set with HepG2 cells (in words, refers to Table I) was “very similar cholesterol/HMGR suppression in vitro and in vivo”. For the same molecule, the HMGR with HMG-CoA reductase [4] is given as 67.4 % of Control.

As for `COC1=C(OC)C(=O)C(CCCCCCCCCCO)=C(C)C1=O` [Idebenone], in data set [6] (in words), the absorption rate result is “absorbed rapidly” and the intestinal absorption result is “low intestinal absorption”. Further, the bioavailability in data set [6] (low intestinal absorption) is 15-30%.

Turning to `CC(C)=CCC/C(C)=C/CC/C(C)=C/CCC(O)CCC1=CC(=O)C(C)=C(C)C1=O` (stereo not drawn) [Example 12, 5-(3-Hydroxy-7,11,15-Trimethyl-6(E),10(E),14-Hexadecatrienyl)-2,3-Dimethyl-2,5-Cyclohexadiene-1,4-Dione], the activity at 10 µM is 74% on HMG-CoA reductase [3] and 3% in the data set with HepG2 cells. In addition, the response vs control in vivo at 4 mg/kg/day in data set [2] (setting [7]) was 95%; in data set [2] (setting [8]), 73%; in data set [2] (setting [9]), 82.7%.

Turning to `COc1c(O)c(C)c(C/C=C(\C)CC/C=C(\C)CC/C=C(\C)CC/C=C(\C)CC/C=C(\C)CC/C=C(\C)CC/C=C(\C)CC/C=C(\C)CC/C=C(\C)CCC=C(C)C)c(O)c1OC` [ubiquinol-10], in the data set with LDL, the LDL oxidation inhibition result is “inhibitor of LDL oxidation” and the “LDL oxidation inhibition efficiency relative to tocopherol” value is “much more efficient than tocopherol”.
